Where “and” joins values, the source holds several entries; their conditions need not be identical. Equal values may be shown once. Toxic doses and inconclusive results are not listed. The calls were made as follows: active = survival T/C of 150% or more; inactive = T/C below 125% in these data.
Tested on: BDF1 mice, B16 melanoma ip, median survival T/C
Assay: NCI In Vivo Anticancer Drug Screen. Data for tumor model B16 Melanoma (intraperitoneal) in B6D2F1 (BDF1) mice
Settings: endpoint: median survival time, higher = longer survival
In short: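 The ratio T/C compares compound-treated mice with vehicle-treated controls, using survival or tumor size as the endpoint in a transplantable tumor model.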

[1] = dose: 100.0 mg/kg/injection, schedule: Q01DX009 (ip), vehicle: Klucel (hydroxypropylcellulose) (HPC)
[2] = dose: 200.0 mg/kg/injection, schedule: Q01DX009 (ip), vehicle: Klucel (hydroxypropylcellulose) (HPC)
[3] = dose: 400.0 mg/kg/injection, schedule: Q01DX009 (ip), vehicle: Klucel (hydroxypropylcellulose) (HPC)
[4] = dose: 100.0 mg/kg/injection, schedule: Q04DX003 (ip), vehicle: saline with Tween-80
[5] = dose: 200.0 mg/kg/injection, schedule: Q04DX003 (ip), vehicle: saline with Tween-80
[6] = dose: 400.0 mg/kg/injection, schedule: Q04DX003 (ip), vehicle: saline with Tween-80
[7] = dose: 25.0 mg/kg/injection, schedule: Q01DX009 (ip), vehicle: Klucel (hydroxypropylcellulose) (HPC)
[8] = dose: 50.0 mg/kg/injection, schedule: Q01DX009 (ip), vehicle: Klucel (hydroxypropylcellulose) (HPC)

Measured: T/C

COC(=O)C(C)CN1CCCCCC1 (stereo not given)
inactive: dose: 50.0 mg/kg/injection, schedule: Q04DX003 (ip), vehicle: saline 108 % of control | dose: 100.0 mg/kg/injection, schedule: Q04DX003 (ip), vehicle: saline 102 % of control | dose: 200.0 mg/kg/injection, schedule: Q04DX003 (ip), vehicle: saline 100 % of control

CN(/N=N/c1nc[nH]c1C(N)=O)C(C)(C)C
inactive: dose: 18.75 mg/kg/injection, schedule: Q04DX002 (ip), vehicle: Klucel (hydroxypropylcellulose) (HPC) 101 % of control | dose: 37.5 mg/kg/injection, schedule: Q04DX002 (ip), vehicle: Klucel (hydroxypropylcellulose) (HPC) 107 % of control | dose: 75.0 mg/kg/injection, schedule: Q04DX002 (ip), vehicle: Klucel (hydroxypropylcellulose) (HPC) 98 % of control | [1] 95 % of control | dose: 150.0 mg/kg/injection, schedule: Q04DX002 (ip), vehicle: Klucel (hydroxypropylcellulose) (HPC) 101 % of control | [2] 90 % of control | dose: 300.0 mg/kg/injection, schedule: Q04DX002 (ip), vehicle: Klucel (hydroxypropylcellulose) (HPC) 93 % of control | [3] 104 % of control

S=C(SSSSC(=S)N1CCCCC1)N1CCCCC1
inactive: [1] 95 % of control | [2] 90 % of control | [3] 107 % of control

CCOC(=O)C(=CN1CCCCCC1)C(=O)OCC
inactive: dose: 100.0 mg/kg/injection, schedule: Q01DX009 (ip), vehicle: saline with Tween-80 102 % of control | [4] 97 % of control | dose: 200.0 mg/kg/injection, schedule: Q01DX009 (ip), vehicle: saline with Tween-80 101 % of control | [5] 95 % of control | [6] 92 % of control

CN(C)CCCN1c2ccccc2Sc2c(Cl)cc(Cl)cc21
inactive: dose: 3.12 mg/kg/injection, schedule: Q01DX009 (ip), vehicle: saline 97 % of control | dose: 6.25 mg/kg/injection, schedule: Q01DX009 (ip), vehicle: saline 105 % of control | dose: 12.5 mg/kg/injection, schedule: Q01DX009 (ip), vehicle: saline 102 % of control | dose: 25.0 mg/kg/injection, schedule: Q01DX009 (ip), vehicle: saline 87 % of control

O=C(CCN1CC1)OC1CCCC1
inactive: dose: 0.75 mg/kg/injection, schedule: Q01DX009 (ip), vehicle: Klucel (hydroxypropylcellulose) (HPC) 111 % of control | dose: 1.5 mg/kg/injection, schedule: Q01DX009 (ip), vehicle: Klucel (hydroxypropylcellulose) (HPC) 105 % of control | dose: 3.0 mg/kg/injection, schedule: Q01DX009 (ip), vehicle: Klucel (hydroxypropylcellulose) (HPC) 108 % of control

CC(=O)c1ccc2ccccc2c1O
inactive: dose: 12.5 mg/kg/injection, schedule: Q01DX009 (ip), vehicle: saline with Tween-80 107 % of control | dose: 25.0 mg/kg/injection, schedule: Q01DX009 (ip), vehicle: saline with Tween-80 93 % of control | dose: 50.0 mg/kg/injection, schedule: Q01DX009 (ip), vehicle: saline with Tween-80 106 % of control | [4] 100 % of control | [5] 110 % of control | [6] 100 % of control

CC1=C(/C=C/C(C)=C/C=C/C(C)=C/C(=O)O)C(C)(C)CCC1
inactive: dose: 0.5 mg/kg/injection, schedule: Q01DX009 (ip), vehicle: saline with Tween-80 98 % of control | dose: 1.0 mg/kg/injection, schedule: Q01DX009 (ip), vehicle: saline with Tween-80 90 % of control | dose: 8.0 mg/kg/injection, schedule: Q01DX009 (ip), vehicle: saline with Tween-80 92 % of control | dose: 16.0 mg/kg/injection, schedule: Q01DX009 (ip), vehicle: saline with Tween-80 86 % of control and 88 % of control (2×) | dose: 32.0 mg/kg/injection, schedule: Q01DX009 (ip), vehicle: saline with Tween-80 86 % of control and 94 % of control | dose: 64.0 mg/kg/injection, schedule: Q01DX009 (ip), vehicle: saline with Tween-80 93 % of control

O=C1N(Br)C(=O)C(c2ccc(Cl)cc2)(c2ccc(Cl)cc2)N1Br
inactive: dose: 6.25 mg/kg/injection, schedule: Q01DX009 (ip), vehicle: Klucel (hydroxypropylcellulose) (HPC) 103 % of control | dose: 12.5 mg/kg/injection, schedule: Q01DX009 (ip), vehicle: Klucel (hydroxypropylcellulose) (HPC) 98 % of control | [7] 100 % of control | [8] 88 % of control

CCCCCCCCCC(O)CCCC (stereo not given)
inactive: [7] 108 % of control | [8] 105 % of control | [1] 86 % of control

Reference: PubChem BioAssay AID192 (DTP/NCI, 2004)
